The text below walks through data of article PMC4515248 (Applied Biochemistry and Biotechnology, 2015).

This assay addresses T1, CuCDH (Cerrena unicolor, UniProt S5R9V1).
T1 construct: native secreted intact flavocytochrome (heme b plus FAD domains) purified from culture supernatant; signal peptide (18 aa) removed; precursor 771 aa
Description: UV-visible spectrum of purified enzyme. In kind it is binding. The conditions noted are these: 100 mM sodium acetate, pH 4.5; oxidized and lactose-reduced.

Structures are written as SMILES.

T1 sequence (S5R9V1 19-771): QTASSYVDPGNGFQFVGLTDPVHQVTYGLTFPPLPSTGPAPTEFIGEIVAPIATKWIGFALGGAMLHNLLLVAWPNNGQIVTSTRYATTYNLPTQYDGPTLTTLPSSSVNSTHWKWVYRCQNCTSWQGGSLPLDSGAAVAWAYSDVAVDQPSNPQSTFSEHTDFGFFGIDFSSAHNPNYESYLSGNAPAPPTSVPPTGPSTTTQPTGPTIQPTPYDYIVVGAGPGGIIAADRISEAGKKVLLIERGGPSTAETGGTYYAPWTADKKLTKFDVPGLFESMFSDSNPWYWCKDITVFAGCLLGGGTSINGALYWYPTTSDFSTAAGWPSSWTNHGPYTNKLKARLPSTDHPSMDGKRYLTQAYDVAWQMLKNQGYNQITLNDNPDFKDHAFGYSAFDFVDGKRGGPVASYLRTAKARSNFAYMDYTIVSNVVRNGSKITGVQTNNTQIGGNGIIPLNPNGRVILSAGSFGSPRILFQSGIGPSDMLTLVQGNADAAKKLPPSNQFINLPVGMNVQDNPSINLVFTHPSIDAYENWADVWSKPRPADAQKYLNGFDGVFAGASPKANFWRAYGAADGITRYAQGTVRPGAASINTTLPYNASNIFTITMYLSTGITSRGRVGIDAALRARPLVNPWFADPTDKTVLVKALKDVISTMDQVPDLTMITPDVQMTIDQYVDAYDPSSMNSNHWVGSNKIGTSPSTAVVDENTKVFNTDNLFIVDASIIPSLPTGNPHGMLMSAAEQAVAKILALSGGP

Consider `Cc1cc2nc3c(=O)[nH]c(=O)nc-3n(C[C@H](O)[C@H](O)[C@H](O)COP(=O)(O)OP(=O)(O)OC[C@H]3O[C@@H](n4cnc5c(N)ncnc54)[C@H](O)[C@@H]3O)c2cc1C` [FAD], for which the “UV-visible spectrum of purified enzyme” value is “indicated the presence of heme and flavin cofactors in the protein”.
